The target in experiment [1] is T1, Fatty-acid amide hydrolase 1 (Rattus norvegicus, UniProt P97612).
T1 sequence (P97612 whole entry): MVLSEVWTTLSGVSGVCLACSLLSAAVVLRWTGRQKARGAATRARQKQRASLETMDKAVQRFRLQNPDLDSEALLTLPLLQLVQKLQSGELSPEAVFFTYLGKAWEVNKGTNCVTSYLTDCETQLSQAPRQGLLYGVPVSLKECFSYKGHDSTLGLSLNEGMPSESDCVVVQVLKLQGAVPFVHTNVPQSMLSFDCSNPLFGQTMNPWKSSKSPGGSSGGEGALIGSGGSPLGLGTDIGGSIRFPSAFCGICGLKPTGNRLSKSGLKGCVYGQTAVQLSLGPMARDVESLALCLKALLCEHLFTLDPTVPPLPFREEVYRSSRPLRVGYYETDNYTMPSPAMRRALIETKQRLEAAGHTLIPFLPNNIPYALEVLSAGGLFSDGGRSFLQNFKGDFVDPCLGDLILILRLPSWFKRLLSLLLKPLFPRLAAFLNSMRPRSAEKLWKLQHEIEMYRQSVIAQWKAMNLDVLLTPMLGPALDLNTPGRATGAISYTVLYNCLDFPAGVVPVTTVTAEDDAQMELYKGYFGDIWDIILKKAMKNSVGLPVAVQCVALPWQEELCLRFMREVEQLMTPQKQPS
As to the kind of experiment: Inhibition of rat recombinant FAAH expressed in Escherichia coli.

Experiment [2] concerns the target T2, Neutral cholesterol ester hydrolase 1 (Homo sapiens, UniProt Q6PIU2).
T2 sequence (Q6PIU2 whole entry): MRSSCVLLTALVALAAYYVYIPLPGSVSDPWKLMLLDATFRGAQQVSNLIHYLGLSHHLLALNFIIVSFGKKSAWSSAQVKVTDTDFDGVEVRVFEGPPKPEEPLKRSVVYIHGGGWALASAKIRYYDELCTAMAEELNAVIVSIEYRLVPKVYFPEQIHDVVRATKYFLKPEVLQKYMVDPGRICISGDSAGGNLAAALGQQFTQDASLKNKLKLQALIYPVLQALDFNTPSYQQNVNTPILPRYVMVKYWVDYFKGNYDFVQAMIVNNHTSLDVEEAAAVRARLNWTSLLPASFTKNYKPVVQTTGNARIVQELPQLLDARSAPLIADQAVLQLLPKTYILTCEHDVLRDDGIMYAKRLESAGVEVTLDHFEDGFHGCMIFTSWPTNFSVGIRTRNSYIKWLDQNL
As to the kind of experiment: Inhibition of KIAA1363.

Experiment [3] is described as follows: Selectivity for rat recombinant FAAH over KIAA1363.
The target of experiment [4] is T3, Liver carboxylesterase 1 (Homo sapiens, UniProt P23141).
T3 sequence (P23141 whole entry): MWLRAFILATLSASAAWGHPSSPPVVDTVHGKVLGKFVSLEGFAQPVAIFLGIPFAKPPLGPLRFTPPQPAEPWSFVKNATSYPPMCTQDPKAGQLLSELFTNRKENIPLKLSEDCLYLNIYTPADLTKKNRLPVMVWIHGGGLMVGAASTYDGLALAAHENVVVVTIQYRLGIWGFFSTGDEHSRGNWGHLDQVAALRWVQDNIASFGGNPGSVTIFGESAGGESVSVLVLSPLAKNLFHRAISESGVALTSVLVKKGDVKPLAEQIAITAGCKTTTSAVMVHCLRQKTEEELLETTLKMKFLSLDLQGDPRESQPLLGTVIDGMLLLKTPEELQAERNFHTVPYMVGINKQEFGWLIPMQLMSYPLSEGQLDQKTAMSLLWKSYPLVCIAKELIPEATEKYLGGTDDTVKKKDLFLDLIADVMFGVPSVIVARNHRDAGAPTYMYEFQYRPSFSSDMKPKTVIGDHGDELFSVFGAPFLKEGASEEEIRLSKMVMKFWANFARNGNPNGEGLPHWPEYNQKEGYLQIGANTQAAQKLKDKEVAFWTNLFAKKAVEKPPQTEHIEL

The nature of experiment [5]: Selectivity for rat recombinant FAAH over TGH.

One may read the Ki as the dissociation constant of the complex between target and ligand, obtained from inhibition or displacement. In the case of `O=C(CCc1ccc(-c2ccccc2)cc1)c1ncc(I)o1`, in experiment [1], the inhibitory constant (Ki) came to 0.004 µM.

For `NC(=O)c1ccc(-c2cnc(C(=O)CCc3ccc(-c4ccccc4)cc3)o2)nc1`, the Ki in experiment [1] is 0.0013 µM. On to `O=C(O)c1cccc(-c2cnc(C(O)CCc3ccc(-c4ccccc4)cc3)o2)n1` (stereo not drawn), for which the inhibitory constant (Ki) in experiment [1] was found to be 1.1 µM.

Consider `COC(=O)c1cnc(C(=O)CCc2ccc(-c3ccccc3)cc2)o1`, for which the Ki in experiment [1] was found to be 0.0015 µM. The same measure, in the same setting: to `CNC(=O)c1cnc(C(=O)CCc2ccc(Oc3ccccc3)cc2)o1` belongs 0.011 µM. Turning to `NC(=O)c1cccc(-c2cnc(C(O)CCc3ccc(-c4ccccc4)cc3)o2)n1` (stereo not drawn), the Ki in experiment [1] was 20 µM. The same measure, in the same setting: to `O=C(CCc1ccc(Oc2ccccc2)cc1)c1ncc(I)o1` belongs 0.01 µM.

On to `CN(C)C(=O)c1cnc(C(=O)CCc2ccc(COc3ccccc3)cc2)o1`, for which the Ki in experiment [1] is 0.0067 µM.

On to `N#Cc1cccc(-c2cnc(C(=O)CCc3ccc(COc4ccccc4)cc3)o2)n1`, for which the Ki in experiment [1] stood at 0.00056 µM. The IC50 is the point on the concentration scale where inhibition reaches its midpoint. In the case of `O=C(CCc1ccc(COc2ccccc2)cc1)c1ncc(-c2cccc(-c3nnn[nH]3)n2)o1`, the half-inhibitory concentration (IC50) in experiment [1] is 0.18 µM; in experiment [2], above 100 µM; in experiment [4], 90 µM. Besides, the Ratio IC50 in experiment [3] is above 550; in experiment [5], 500. Turning to `O=C(O)c1cccc(-c2cnc(C(=O)CCc3ccc(-c4ccc(CN5CCCC5)cc4)cc3)o2)n1`, the Ki in experiment [1] came out at 0.13 µM. Take `N#Cc1cnc(C(=O)CCc2ccc(-c3ccccc3)cc2)o1`: the IC50 came to 0.001 µM in experiment [1], 64 µM in experiment [2] and 0.026 µM in experiment [4]. Besides, the Ratio IC50 in experiment [3] is 64000; in experiment [5] it was 26. Besides, the Selectivity ratio in experiment [3] was above 1000.

In the case of `NC(=O)c1cnc(C(=O)CCc2ccc(Oc3ccccc3)cc2)o1`, in experiment [1], the Ki is 0.0066 µM. Same read-out and setting: under `O=C(O)c1cccc(-c2cnc(C(=O)CCc3ccc(OC4CCNCC4)cc3)o2)n1` stands 11 µM; under `COC(=O)c1cnc(C(=O)CCc2ccc(COc3ccccc3)cc2)o1`, 0.0016 µM; under `CNC(=O)c1cnc(C(=O)CCc2ccc(COc3ccccc3)cc2)o1`, 0.0036 µM. `O=C(O)c1ccc(-c2cnc(C(O)CCc3ccc(-c4ccccc4)cc3)o2)nc1` (stereo not drawn): the Ki in experiment [1] worked out at 10 µM. Consider `O=C(CCc1ccc(-c2ccccc2)cc1)c1ncc(-c2cccc(-c3nnn[nH]3)n2)o1`, for which the IC50 was 0.1 µM in experiment [1], above 100 µM in experiment [2] and 7 µM in experiment [4]. Moreover, the inhibition constant (Ki) in experiment [1] worked out at 0.025 µM. Further, the Ratio IC50 in experiment [3] was above 1000; in experiment [5] it was 70. For `N#Cc1cccc(-c2cnc(C(=O)CCc3ccc(-c4ccccc4)cc3)o2)n1`, in experiment [1], the Ki came out at 0.0029 µM. On to `O=C(CCc1ccc(Oc2ccccc2)cc1)c1ncc(-c2ccccn2)o1`, for which the half-maximal inhibitory concentration (IC50) in experiment [1] is 0.002 µM; in experiment [2], above 100 µM; in experiment [4], 0.2 µM. On to `CS(=O)(=O)c1cnc(C(=O)CCc2ccc(-c3ccccc3)cc2)o1`, for which, in experiment [1], the Ki stood at 0.0012 µM. Regarding `CSc1cnc(C(=O)CCc2ccc(-c3ccccc3)cc2)o1`, in experiment [1], the Ki amounted to 0.003 µM. As to `O=C(CCc1ccc(-c2ccc(CN3CCCCC3)cc2)cc1)c1ncco1`, the inhibition constant (Ki) in experiment [1] turned out to be 0.025 µM. Take `O=C(CCc1ccc(COc2ccccc2)cc1)c1ncc(-c2ccccn2)o1`: the 50% inhibitory concentration (IC50) was 0.002 µM in experiment [1], above 100 µM in experiment [2] and 2 µM in experiment [4]. Moreover, the Ratio IC50 was above 50000 in experiment [3] and 1000 in experiment [5]. As to `NC(=O)c1cnc(C(=O)CCc2ccc(-c3ccccc3)cc2)o1`, the Ki in experiment [1] amounted to 0.0035 µM.

Take `O=C(CCCCCCc1ccccc1)c1ncco1`: in experiment [1], the IC50 was 2.5 µM. For the compound `O=C(CCc1ccc(-c2ccccc2)cc1)c1ncc(-c2ccccn2)o1`, the results for the half-maximal inhibitory concentration (IC50) in experiment [2] and in experiment [4] were above 100 µM and 1.2 µM, respectively. `O=C(O)c1cccc(-c2cnc(C(=O)CCCCCCc3ccccc3)o2)n1`: in experiment [1], the half-maximal inhibitory concentration (IC50) is 0.1 µM. Also, the Ratio IC50 in experiment [3] and in experiment [5] was above 1000 each time.

Regarding `COC(=O)c1cc(-c2cnc(C(=O)CCc3ccc(-c4ccccc4)cc3)o2)ccn1`, the Ki in experiment [1] was 0.0015 µM.

On to `O=C(O)c1cnc(C(=O)CCc2ccc(COc3ccccc3)cc2)o1`, for which the IC50 in experiment [1] was 0.05 µM; in experiment [2], above 100 µM; in experiment [4] it was 37 µM. Further, the inhibitory constant (Ki) in experiment [1] turned out to be 0.022 µM. The Ratio IC50 is above 2000 in experiment [3] and 740 in experiment [5]. Consider `O=C(CCc1ccc(-c2ccccc2)cc1)c1ncc(C(=O)C(F)(F)F)o1`, for which the Ki in experiment [1] is 0.008 µM. For `CN(C)C(=O)c1cnc(C(=O)CCc2ccc(Oc3ccccc3)cc2)o1`, the Ki in experiment [1] came to 0.0054 µM. Same read-out and setting: under `COC(=O)c1ccc(-c2cnc(CCCc3ccc(-c4ccccc4)cc3)o2)nc1` stands 50 µM.

Take `O=C(O)c1cnc(C(=O)CCCCCCc2ccccc2)o1`: the figures for the 50% inhibitory concentration (IC50) in experiment [1] and in experiment [4] were 0.002 µM and 2 µM, respectively. Besides, the Ratio IC50 in experiment [3] is above 50000; in experiment [5], 1000. In the case of `O=C(CCc1ccc(COc2ccccc2)cc1)c1ncc(I)o1`, in experiment [1], the inhibitory constant (Ki) was found to be 0.004 µM. With `NC(=O)c1cnc(C(=O)CCc2ccc(COc3ccccc3)cc2)o1`, the Ki in experiment [1] amounted to 0.0045 µM.

In the case of `COC(=O)c1cccc(-c2cnc(C(=O)CCc3ccc(OC4CCNCC4)cc3)o2)n1`, the inhibition constant Ki in experiment [1] came to 4.5 µM. For `COC(=O)c1cccc(-c2cnc(C(O)CCc3ccc(-c4ccccc4)cc3)o2)n1` (stereo not drawn), the inhibition constant Ki in experiment [1] came to 9 µM. The same measure, in the same setting: under `O=C(O)c1cccc(-c2cnc(CCCc3ccc(-c4ccccc4)cc3)o2)n1` stands 10 µM.

Take `O=C(O)c1ccc(-c2cnc(CCCc3ccc(-c4ccccc4)cc3)o2)nc1`: in experiment [1], the inhibitory constant (Ki) was 20 µM.

`O=C(CCc1ccc(-c2ccccc2)cc1)c1ncc(C(F)(F)F)o1`: the Ki in experiment [1] turned out to be 0.0007 µM.

Consider `COC(=O)c1cnc(C(=O)CCc2ccc(Oc3ccccc3)cc2)o1`, for which the inhibitory constant (Ki) in experiment [1] stood at 0.0017 µM. Consider `O=C(O)c1cnc(C(=O)CCc2ccc(-c3ccccc3)cc2)o1`, for which the results for the IC50 in experiment [1], in experiment [2] and in experiment [4] were 0.02 µM, above 100 µM and 17 µM, respectively. Moreover, the Ki in experiment [1] was 0.01 µM. In addition, the Ratio IC50 in experiment [3] was above 5000; in experiment [5] it was 850.

Turning to `COC(=O)c1ccc(-c2cnc(C(O)CCc3ccc(-c4ccccc4)cc3)o2)nc1` (stereo not drawn), the Ki in experiment [1] amounted to 1.1 µM. Still for that read-out and setting: to `NC(=O)c1ccc(-c2cnc(C(O)CCc3ccc(-c4ccccc4)cc3)o2)nc1` (stereo not drawn) belongs above 1 µM. As to `O=C(O)c1cccc(-c2cnc(C(=O)CCc3ccc(COc4ccccc4)cc3)o2)n1`, the IC50 in experiment [1] is 0.04 µM; in experiment [2], above 100 µM; in experiment [4], 26 µM. Moreover, the Ratio IC50 in experiment [3] is above 2500; in experiment [5] it was 650. Turning to `O=C(CCCCCCc1ccccc1)c1ncc(-c2cccc(-c3nnn[nH]3)n2)o1`, the IC50 in experiment [1] was 0.5 µM; in experiment [2], above 100 µM; in experiment [4], above 100 µM. In addition, the Ratio IC50 in experiment [3] and in experiment [5] was above 200 in each case. `NC(=O)c1cccc(-c2cnc(CCCc3ccc(-c4ccccc4)cc3)o2)n1`: in experiment [1], the inhibition constant Ki was 4 µM. On the same count and under the same terms, to `CN1CCN(Cc2ccc(-c3ccc(CCC(=O)c4ncc(-c5cccc(C(=O)O)n5)o4)cc3)cc2)CC1` belongs 1.2 µM. `CC(C)(C)OC(=O)N1CCC(Oc2ccc(CCC(=O)c3ncc(-c4cccc(C(=O)O)n4)o3)cc2)CC1`: the Ki in experiment [1] worked out at 0.12 µM.

Regarding `CN(C)C(=O)c1cnc(C(=O)CCc2ccc(-c3ccccc3)cc2)o1`, the Ki in experiment [1] worked out at 0.003 µM.

`COC(=O)c1cccc(-c2cnc(C(=O)CCc3ccc(OC4CCN(C(=O)OC(C)(C)C)CC4)cc3)o2)n1`: the inhibition constant Ki in experiment [1] came to 0.032 µM.

On to `COC(=O)c1cccc(-c2cnc(CCCc3ccc(-c4ccccc4)cc3)o2)n1`, for which the Ki in experiment [1] was determined as 7 µM. With `NC(=O)c1ccc(-c2cnc(CCCc3ccc(-c4ccccc4)cc3)o2)nc1`, the inhibition constant (Ki) in experiment [1] was 30 µM.

These data come from ChEMBL document CHEMBL1142267, “Optimization of alpha-ketooxazole inhibitors of fatty acid amide hydrolase” (J Med Chem, 2008).
